Among the data in patent publication US20100029761A1, “NOVEL COMPOUNDS, PHARMACEUTICAL COMPOSITIONS CONTAINING SAME, AND METHODS OF USE FOR SAME” (priority 2005, published 2010) are Beta oxidation and IC50 values, retold here.

Converted amounts (≈) assume the structure as drawn.

Format in all cases: cell-based
Assay [1] deals with β-Oxidation of (1-14C) palmitic acid in cells. Nature of the assay: β-Oxidation assay, isolation of acid soluble products. More on the design: unit not given here. The method, then: A 24 well plate with 1 ml per well was prepared with 2.5×10^5 cells /well. The cells were incubated O/N. The next day, a solubilized palmitate solution was prepared. 50 μls of (1−^14C) Palmitic acid was added to a 2 ml centrifuge tube and dried under nitrogen gas. 2 mls of α-CD (α-Cyclodextran)—10 mg/ml in 10 mM Tris were added. This solution was incubated in a 37° C. water bath for 30 minutes. A hot mix was prepared by adding 25 μl of this solution to 2.5 μls of 200 μM Carnitine and 222.5 μl of serum free medium that is used for cells. The cells were then treated with the test compound in triplicate, and incubated. at 37° C. for 60 minutes. The medium was removed and 250 μl of the hot mix were added. The test compound was added again, and further incubated at 37° C. for 60 minutes. The reaction was stopped with 50 μl of 2.6 N HClO4. The contents of the plate were transferred to a 1.5 ml centrifuge tube, and 50 μl of 4N KOH were then added, and the tube incubated in a 60° C. water bath for 30 min. Sodium acetate (1 M, 75 μl) and sulfuric acid (3N, 50 μl) were added to the solution and vortexed. The tube was spun for 7 minutes at 1000 rpm at room temperature. A portion (225 μl) was removed, and the following were added (vortex after each addition, twice at the end): 938 μl of 1:1 Chloroform: Methanol; 468 μl of Chloroform; 281 μl distilled Water. The tubes were spun at 1000 rpm for 5 minutes. The upper phase was removed into a large glass scintillation vial and 5 ml of Budget solvent (scintillation liquid) was added. The tubes were well vortexed. Finally, ^14C was counted for one minute.

Another assay relates to OV. Nature of the assay: XTT cytotoxicity assay (OV). Particulars: abbreviation not defined. On the procedure:
(§1) The XTT assay is a non-radioactive alternative for the [^51Cr] release cytotoxicity assay. XTT is a tetrazolium salt that is reduced to a formazan dye only by metabolically active, viable cells. The reduction of XTT is measured spectrophotometrically as OD490-OD650. After 72 hours of incubation, cells are incubated for 4 hours with the XTT reagent as per manufacturer's instructions (Cell Proliferation Kit II (XTT) Roche). Plates are read at OD490 and OD650 on a Molecular Devices SpectraMax Plus Spectrophotometer. Three wells containing the XTT reagent without cells serve as the plate blank. XTT data are reported as OD490-OD650. Averages and standard error of the mean are computed using SOFTmax Pro software (Molecular Dynamics). The IC50 for the compounds is defined as the concentration of drug leading to a 50% reduction in OD490-OD650 compared to controls. The OD490-OD650 are computed by the SOFTmax PRO software (Molecular Devices) for each compound concentration. IC50 is calculated by linear regression, plotting the FAS activity as percent of control versus drug concentrations. Linear regression, best-fit line, r^2, and 95% confidence intervals are determined using Prism Version 3.0 (Graph Pad Software).

For assay [2], the system named is MCF-7 human breast cancer cells. Nature of the assay: XTT cytotoxicity assay (M). The conditions noted are these: MCF7, MCF-7, 72 hours. On the procedure: as §1, with “as OD490-OD650. To measure the cytotoxicity of specific compounds against cancer cells, 9×10^3 MCF-7 human breast cancer cells, obtained from the American Type Culture Collection are plated per well in 96 well plates in DMEM medium with 10% fetal bovine serum, insulin, penicillin, and streptomycin. Following overnight culture at 37° C. and 5% CO2, the compounds to be tested, dissolved in DMSO, are added to the wells in 1 μl volume at the following concentrations: 80, 40, 20, 10, 5, 2.5, 1.25, and 0.625 μg/ml in triplicate. Additional concentrations are tested if required. 1 μl of DMSO is added to triplicate wells are the vehicle control. C75 is run at 40, 20, […], and 5 μg/ml in triplicate as positive controls. After 72” for “as OD490-OD650. After 72”

Assay [3] has the same test system. Nature of the assay: Crystal violet cell growth assay. The conditions noted are these: MCF7, MCF-7, 72 hours, read-out: Cr. Violet (IC50). On the procedure:
The crystal violet assay measures cell growth but not cytotoxicity. This assay employs crystal violet staining of fixed cells in 96-well plates with subsequent solubilization and measurement of OD490 on a spectrophotometer. The OD490 corresponds to cell growth per unit time measured. Cells are treated with the compounds of interest or vehicle controls and IC50 for each compound is computed.
To measure the cytotoxicity of specific compounds against cancer cells, 5×10^4 MCF-7 human breast cancer cells, obtained from the American Type Culture Collection are plated per well in 24 well plates in DMEM medium with 10% fetal bovine serum, penicillin, and streptomycin. Following overnight culture at 37° C. and 5% CO2, the compounds to be tested, dissolved in DMSO, are added to the wells in 1 μl volume at the following concentrations: 50, 40, 30, 20, and 10 μg/ml in triplicate. Additional concentrations are tested if required. 1 μl of DMSO is added to triplicate wells are the vehicle control. C75 is run at 10, and 5 μg/ml in triplicate as positive controls.
After 72 hours of incubation, cells are stained with 0.5 ml of Crystal Violet stain (0.5% in 25% methanol) in each well. After 10 minutes, wells are rinsed, air dried, and then solubilized with 0.5 ml 10% sodium dodecylsulfate with shaking for 2 hours. Following transfer of 100 μl from each well to a 96-well plate, plates are read at OD490 on a Molecular Devices SpectraMax Plus Spectrophotometer Average OD490 values are computed using SOFTmax Pro Software (Molecular Devices) and IC50 values are determined by linear regression analysis using Prism version 3.02 (Graph Pad Software, San Diego).

In general, IC50 refers to the concentration that inhibits the measured activity by half. Consider `CCCCCCCCC1OC(=O)C(OC(=O)OCC)=C1C(=O)OCC` (stereo not drawn) [Compound 7], for which the Beta oxidation in assay [1] (0.09 ug/ml) is reported as 99; in assay [1] (0.39 ug/ml) it was 107; in assay [1] (1.56 ug/ml), 113; in assay [1] (6.25 ug/ml), 146; in assay [1] (25 ug/ml), 131; in assay [1] (100 ug/ml), 54. The IC50 in the assay with OV amounted to 13.8 µg/mL (≈ 38.7 µM); in assay [2], 7.7 µg/mL (≈ 21.6 µM).

Consider `C=CCOC1=C(C(=O)OCC)C(CCCCCCCC)OC1=O` (stereo not drawn) [Compound 6], for which the IC50 in assay [3] was 22 µg/mL (≈ 67.8 µM); with OV it was greater than 80 µg/mL; in assay [2] it was greater than 80 µg/mL. Moreover, the Beta oxidation in assay [1] (1.25 ug/ml) came out at 118; in assay [1] (2.5 ug/ml), 125; in assay [1] (5 ug/ml), 112; in assay [1] (10 ug/ml) it was 101.

As for `CCCCCCCCC1OC(=O)C(=O)C1C(=O)OCC` (stereo not drawn) [Compound 1], the IC50 in assay [3] stood at 28 µg/mL (≈ 98.5 µM); with OV, 18.4 ± 5.8 µg/mL (≈ 64.7 µM); in assay [2], 33.7 ± 14.6 µg/mL (≈ 119 µM).

In the case of `CCCCCCCCC1OC(=O)C(OCC(=O)OCC)=C1C(=O)OCC` (stereo not drawn) [Compound 3], the results for the IC50 (in assay [3]; in the assay on OV; in assay [2]) were 35.4 µg/mL (≈ 95.6 µM), 24.1 µg/mL (≈ 65.1 µM) and 26.7 ± 5.3 µg/mL (≈ 72.1 µM), respectively. Also, the Beta oxidation in assay [1] (1.25 ug/ml) amounted to 113; in assay [1] (2.5 ug/ml), 131; in assay [1] (5 ug/ml), 138; in assay [1] (10 ug/ml), 79.

Consider `CCCCCCCCC1OC(=O)C(OCc2ccccc2)=C1C(=O)OCC` (stereo not drawn) [Compound 5], for which the IC50 in assay [3] was 17.1 µg/mL (≈ 45.7 µM); with OV, 33.9 µg/mL (≈ 90.5 µM); in assay [2] it was greater than 80 µg/mL. Also, the Beta oxidation in assay [1] (1.25 ug/ml) was determined as 108; in assay [1] (2.5 ug/ml), 101; in assay [1] (5 ug/ml), 115; in assay [1] (10 ug/ml), 74.

Consider `CCCCCCCCC1OC(=O)C(OC)=C1C(=O)OCC` (stereo not drawn) [Compound 4], for which the IC50 is 10.7 µg/mL (≈ 35.9 µM) in assay [3], 9.2 µg/mL (≈ 30.8 µM) in the assay with OV and 25.3 ± 1.5 µg/mL (≈ 84.8 µM) in assay [2]. Moreover, the Beta oxidation in assay [1] (1.25 ug/ml) is on record as 112; in assay [1] (2.5 ug/ml) it was 119; in assay [1] (5 ug/ml), 116; in assay [1] (10 ug/ml) it was 104.

On to `CCCCC1OC(=O)C(O)=C1C(=O)OCC` (stereo not drawn) [Compound 2], for which the results for the IC50 (in assay [3]; in the assay on OV; in assay [2]) were 41.9 µg/mL (≈ 184 µM), 66.1 µg/mL (≈ 290 µM) and greater than 80 µg/mL, respectively. Moreover, the Beta oxidation in assay [1] (0.19 ug/ml) was 102; in assay [1] (0.39 ug/ml), 102; in assay [1] (1.56 ug/ml) it was 112; in assay [1] (12.5 ug/ml), 108; in assay [1] (50 ug/ml) it was 45; in assay [1] (.78 ug/ml), 107.
